Measured values as given in ChEMBL document CHEMBL1157692, “Probing the carbohydrate recognition domain of E-selectin: the importance of the acid orientation in sLex mimetics” (Bioorg Med Chem, 2010).
Activity calls are given as the source filed them. No cut-off for these calls is given here.

Molecular target: T1, E-selectin (Homo sapiens) (UniProt P16581)
T1 sequence (whole entry): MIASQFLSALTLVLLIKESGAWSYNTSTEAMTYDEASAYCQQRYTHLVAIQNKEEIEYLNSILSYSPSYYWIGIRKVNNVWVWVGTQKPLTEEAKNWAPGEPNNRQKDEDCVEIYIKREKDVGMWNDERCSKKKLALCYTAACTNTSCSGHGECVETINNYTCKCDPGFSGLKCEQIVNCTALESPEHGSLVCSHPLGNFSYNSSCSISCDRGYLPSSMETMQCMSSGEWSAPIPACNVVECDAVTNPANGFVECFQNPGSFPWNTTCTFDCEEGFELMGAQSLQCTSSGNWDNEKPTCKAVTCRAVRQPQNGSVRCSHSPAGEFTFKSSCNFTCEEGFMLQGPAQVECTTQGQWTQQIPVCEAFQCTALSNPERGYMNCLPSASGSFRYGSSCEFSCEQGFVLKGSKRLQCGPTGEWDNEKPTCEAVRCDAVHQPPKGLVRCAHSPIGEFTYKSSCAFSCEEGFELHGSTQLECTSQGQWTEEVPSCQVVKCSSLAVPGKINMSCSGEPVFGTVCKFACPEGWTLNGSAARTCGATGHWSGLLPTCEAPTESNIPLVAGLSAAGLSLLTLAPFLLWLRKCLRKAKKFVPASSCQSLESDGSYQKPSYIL
Experiment: Ratio of sialyl Lewis X IC50 to compound IC50 for E-selectin by ELISA

Ratio IC50	SMILES
12	C[C@@H]1O[C@@H](O[C@@H]2CCCC[C@H]2O[C@@H]2O[C@H](CO)[C@H](O)[C@H](O[C@@H](CC3CCCCC3)C(=O)O)[C@H]2O)[C@@H](O)[C@H](O)[C@@H]1O

Molecular target: T1, E-selectin (Homo sapiens)
Experiment: Inhibition of CGP-69669A binding to E-selectin by ELISA

inhibition	SMILES
inactive	C[C@@H]1O[C@@H](O[C@@H]2CCCC[C@H]2O[C@@H]2O[C@H](CO)[C@H](O)[C@H](O[C@@H](Cn3cc(-c4cccc(C(F)(F)F)c4)nn3)C(=O)O)[C@H]2O)[C@@H](O)[C@H](O)[C@@H]1O

Molecular target: T1, E-selectin (Homo sapiens)
Experiment: Ratio of compound IC50 to sialyl Lewis X IC50 for E-selectin by ELISA

SMILES	Ratio IC50
C[C@@H]1O[C@@H](O[C@@H]2CCCC[C@H]2O[C@@H]2O[C@H](CO)[C@H](O)[C@H](O[C@@H](Cn3cc(-c4ccsc4)nn3)C(=O)O)[C@H]2O)[C@@H](O)[C@H](O)[C@@H]1O	0.88
C[C@@H]1O[C@@H](O[C@@H]2CCCC[C@H]2O[C@@H]2O[C@H](CO)[C@H](O)[C@H](O[C@@H](CN=[N+]=[N-])C(=O)O)[C@H]2O)[C@@H](O)[C@H](O)[C@@H]1O	0.29
C[C@@H]1O[C@@H](O[C@@H]2CCCC[C@H]2O[C@@H]2O[C@H](CO)[C@H](O)[C@H](O[C@@H](Cn3cc(Cn4nnc5ccccc54)nn3)C(=O)O)[C@H]2O)[C@@H](O)[C@H](O)[C@@H]1O	1.18
C[C@@H]1O[C@@H](O[C@@H]2CCCC[C@H]2O[C@@H]2O[C@H](CO)[C@H](O)[C@H](O[C@@H](Cn3cc(Cn4nnc5c4CCCC5)nn3)C(=O)O)[C@H]2O)[C@@H](O)[C@H](O)[C@@H]1O	1.22

Next, values leading:

Ratio IC50	SMILES
0.08	C[C@@H]1O[C@@H](O[C@@H]2CCCC[C@H]2O[C@@H]2O[C@H](CO)[C@H](O)[C@H](O[C@@H](CC3CCCCC3)C(=O)O)[C@H]2O)[C@@H](O)[C@H](O)[C@@H]1O
0.48	C[C@@H]1O[C@@H](O[C@@H]2CCCC[C@H]2O[C@@H]2O[C@H](CO)[C@H](O)[C@H](O[C@@H](Cn3ccnn3)C(=O)O)[C@H]2O)[C@@H](O)[C@H](O)[C@@H]1O
1.03	C[C@@H]1O[C@@H](O[C@@H]2CCCC[C@H]2O[C@@H]2O[C@H](CO)[C@H](O)[C@H](O[C@@H](Cn3cc(Cc4ccccc4)nn3)C(=O)O)[C@H]2O)[C@@H](O)[C@H](O)[C@@H]1O
3.13	C[C@@H]1O[C@@H](O[C@@H]2CCCC[C@H]2O[C@@H]2O[C@H](CO)[C@H](O)[C@H](O[C@@H](Cn3cc(-c4cccnc4)nn3)C(=O)O)[C@H]2O)[C@@H](O)[C@H](O)[C@@H]1O
